Laboratory results: patent US20070264355A1, “BINARY COMPOSITIONS AND METHODS FOR STERILIZATION” (Binary, LLC, priority 2005, published 2007)
Where “and” joins values, the source holds several entries; their conditions need not be identical. Identical values can stand only once.

System: Bacillus subtilis (ATCC 19659) spores
Test: Microbicidal activity against Bacillus subtilis spores (suspension test, surviving CFU)
Type: cell-based
Source text: Each solution was used alone for the individual controls. Organism suspensions were used to achieve a final target concentration of 2-3×10^6 CFU per ml. For the binary system treatments, sodium hypochlorite solution and hydrogen peroxide solution, non-acidified or acidified, were sequentially added to the microorganisms. Acidified hydrogen peroxide solution was obtained by the addition of 1.0% v/v of 0.001 N hydrochloride solution. After each addition, the resulting mixture was allowed to remain in contact with the organisms for a set amount of time at room temperature (about 22° C.), as listed in the Tables 1 and 2. At the end of the treatment time, the mixtures were neutralized with 200 to 500 microliters of thiosulfate solution (2.4%) to quench the activity of sodium hypochlorite and then treated with 100 to 200 microliters of a 1% catalase solution, containing a minimum of 100 units/ul, to quench the hydrogen peroxide activity. If needed, an appropriate volume of sterile saline was added to bring the final volume of reaction mixture to 1.4 ml after neutralization. Serial dilution plate counts were performed from the contents of each vial in sterile saline and inoculated onto TSA for quantitative culture. Plates were then incubated at 37° C. and counts taken at 24 hours.
Suspensions of Bacillus subtilis (ATCC 19659) containing 100% spores, as confirmed by microscopy, were obtained by washing the spun-down cells with 50% ethanol to eliminate the vegetative form. Starting inoculum of approximately 1-3×10^6 CFU was used as in Example 1.
[…] The binary system was neutralized 30 minutes after addition of hydrogen peroxide using 2.4% thiosulfate and 1% catalase as described in Example 1.

[1] = NaOCl 0.07 mM 60 min, inoculum 1120000 CFU
[2] = NaOCl 0.07 mM 60 min, inoculum 1865000 CFU
[3] = NaOCl 0.07 mM 120 min, inoculum 1865000 CFU
[4] = NaOCl 0.7 mM 60 min, inoculum 1500000 CFU
[5] = NaOCl 0.71 mM 60 min, inoculum 1120000 CFU
[6] = NaOCl 0.71 mM 60 min, inoculum 1865000 CFU
[7] = NaOCl 0.71 mM 120 min, inoculum 1865000 CFU
[8] = NaOCl 3.5 mM 60 min, inoculum 1500000 CFU
[9] = NaOCl 7.0 mM 60 min, inoculum 1500000 CFU
[10] = NaOCl 7.05 mM 60 min, inoculum 1120000 CFU
[11] = NaOCl 7.05 mM 60 min, inoculum 1865000 CFU
[12] = NaOCl 7.05 mM 120 min, inoculum 1865000 CFU
[13] = NaOCl 70.53 mM 60 min, inoculum 1865000 CFU
[14] = NaOCl 70.53 mM 120 min, inoculum 1865000 CFU
[15] = NaOCl 705.27 mM 60 min, inoculum 1865000 CFU
[16] = NaOCl 705.27 mM 120 min, inoculum 1865000 CFU

[Na+].[O-]Cl [NaOCl, sodium hypochlorite]
Log 10 (CFU + 1) Survivors [1]: 6.2
Total Viability (CFU) [1]: 1666000 CFU
Log 10 (CFU + 1) Survivors [2]: 6.3
Log Reduction [2]: −0.1
Total Viability (CFU) [2]: 2142000 CFU
Log 10 (CFU + 1) Survivors [3]: 6.3
Log Reduction [3]: 0.0
Total Viability (CFU) [3]: 1834000 CFU
Log 10 (CFU + 1) Survivors [4]: 3.5
Log Reduction [4]: 2.7 and 2.66
Total Viability (CFU) [4]: 3304 CFU
Log 10 (CFU + 1) Survivors [5]: 3.5
Total Viability (CFU) [5]: 2898 CFU
Log 10 (CFU + 1) Survivors [6]: 4.2
Log Reduction [6]: 2.1
Total Viability (CFU) [6]: 14840 CFU
Log 10 (CFU + 1) Survivors [7]: 3.2
Log Reduction [7]: 3.1
Total Viability (CFU) [7]: 1526 CFU
Log 10 (CFU + 1) Survivors [8]: 2.7
Log Reduction [8]: 3.4 and 3.44
Total Viability (CFU) [8]: 546 CFU
Log 10 (CFU + 1) Survivors [9]: 1.3
Log Reduction [9]: 4.9 and 4.87
Total Viability (CFU) [9]: 20 CFU
Log 10 (CFU + 1) Survivors [10]: 1.3
Total Viability (CFU) [10]: 17 CFU
Log 10 (CFU + 1) Survivors [11]: 1.6
Log Reduction [11]: 4.6
Total Viability (CFU) [11]: 43 CFU
Log 10 (CFU + 1) Survivors [12]: 0.0
Log Reduction [12]: 6.3
Total Viability (CFU) [12]: 0 CFU
Log 10 (CFU + 1) Survivors [13]: 0.0
Log Reduction [13]: 6.3
Total Viability (CFU) [13]: 0 CFU
Log 10 (CFU + 1) Survivors [14]: 0.0
Log Reduction [14]: 6.3
Total Viability (CFU) [14]: 0 CFU
Log 10 (CFU + 1) Survivors [15]: 0.0
Log Reduction [15]: 6.3
Total Viability (CFU) [15]: 0 CFU
Log 10 (CFU + 1) Survivors [16]: 0.0
Log Reduction [16]: 6.3
Total Viability (CFU) [16]: 0 CFU
microbicidal activity (kill of inoculum) (sodium hypochlorite from 70 mM to 0.07 mM, 60 minutes of exposure, 6.3 log10 CFU inoculum): partial kill
